In brackets after ≈: the same amount, converted by molar mass. Structures can show the parent of a compound that is named as a salt. Where two headings read alike, the source gives them in different places.

Broadly, the IC50 is the concentration that gives 50% inhibition. The melting point is the temperature of the solid-liquid transition.

The test system of data set [1] is E. coli JL4. Briefly: Cross resistance antibacterial assay, microtitration MIC. The note with it: Escherichia coli, Tol C pump deficient strain with E. coli W3110 background, read-out: Minimum Inhibitory Concentrations E. coli JL4. The data set is classed as cell-based. The protocol: (§1) The compounds of the present invention are tested against an assortment of ciprofloxacin resistant E. coli and S. aureus organisms described below using standard microtitration techniques (Cohen, et al., Antimicrob. Agents Chemother., 1985; 28:766; Heifetz, et al., Antimicrob. Agents Chemother., 1974; 6:124).

Data set [2] deals with S. aureus 2554. Described as above. The conditions noted are these: Staphylococcus aureus, 2554, read-out: Minimum Inhibitory Concentrations S. aureus 2554. Type of data set: cell-based. The protocol:
as §1

For data set [3], the system named is S. aureus UC-76. The data set is described as above. Type of data set: cell-based. The note with it: Staphylococcus aureus, UC76; typical sensitive laboratory strain (wild type); read-out: Minimum Inhibitory Concentrations S. aureus UC-76. The protocol:
as §1

Data set [4] concerns S. aureus 2558. The description is as above. The data set is classed as cell-based. The note with it: Staphylococcus aureus, 2558, read-out: Minimum Inhibitory Concentrations S. aureus 2558. The procedure: as §1
In data set [5] the test system is S. aureus 2552. The description is as above. The data set is classed as cell-based. The note with it: Staphylococcus aureus, read-out: Minimum Inhibitory Concentrations S. aureus 2552. The protocol:
as §1

Data set [6] concerns E. coli LLM1. The data set is described as above. The conditions noted are these: Escherichia coli, LLM1, read-out: Minimum Inhibitory Concentrations E. coli LLM1. The data set is classed as cell-based. The protocol: as §1
In data set [7] the test system is S. pyogenes. Kind of data set: In vivo median protective dose, lethal systemic infection. The conditions noted are these: mice. The procedure:
(§2) The in vivo activity of invention compounds is evaluated according to the procedure of Miller et al., Proc. Soc. Exp. Biol. Med, 1944; 57:261. The median protective dose (PD50) is determined in mice given lethal systemic infections. Two 3-aminoquinazolin-2,4-diones of the invention are compared to a […], and the results are presented in Table 3. The results establish the unexpected superiority of the 3-amino invention compounds compared to similar 3-hydroxy analogs.

In data set [8] the target is T1, E. coli gyrase (Escherichia coli, UniProt P0AES4+P0AES6).
T1 construct: purchased Lucent, Ltd., Leicester, UK
T1 sequence (P0AES4 whole entry, one chain of several): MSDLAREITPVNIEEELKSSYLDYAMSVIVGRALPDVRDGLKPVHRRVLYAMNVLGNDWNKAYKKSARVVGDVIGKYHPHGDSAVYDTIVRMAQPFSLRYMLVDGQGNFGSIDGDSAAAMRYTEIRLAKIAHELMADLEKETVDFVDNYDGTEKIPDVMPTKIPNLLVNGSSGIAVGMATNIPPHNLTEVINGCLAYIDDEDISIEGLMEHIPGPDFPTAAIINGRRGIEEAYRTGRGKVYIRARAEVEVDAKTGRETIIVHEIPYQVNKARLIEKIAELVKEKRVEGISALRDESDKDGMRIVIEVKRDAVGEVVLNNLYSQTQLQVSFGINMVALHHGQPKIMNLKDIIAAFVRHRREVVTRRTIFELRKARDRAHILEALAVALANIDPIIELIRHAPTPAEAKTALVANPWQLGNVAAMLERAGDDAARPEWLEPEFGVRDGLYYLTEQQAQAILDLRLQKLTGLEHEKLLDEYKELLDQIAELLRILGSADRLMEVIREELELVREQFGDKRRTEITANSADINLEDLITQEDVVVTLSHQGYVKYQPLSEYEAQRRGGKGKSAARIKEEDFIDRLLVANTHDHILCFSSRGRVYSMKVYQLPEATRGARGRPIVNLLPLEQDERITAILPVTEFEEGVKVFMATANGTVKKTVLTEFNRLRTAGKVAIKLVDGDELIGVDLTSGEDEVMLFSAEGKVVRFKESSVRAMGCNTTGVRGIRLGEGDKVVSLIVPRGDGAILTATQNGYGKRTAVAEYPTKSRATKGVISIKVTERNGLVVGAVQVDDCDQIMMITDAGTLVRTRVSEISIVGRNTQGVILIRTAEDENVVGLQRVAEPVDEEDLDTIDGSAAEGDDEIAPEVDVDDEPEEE
Briefly: DNA gyrase supercoiling inhibition assay. The data set is classed as biochemical. The procedure:
The effects of invention compounds on the activity of DNA gyrase is determined in the supercoiling inhibition assay, following reaction conditions recommended by the enzyme supplier (Lucent, Ltd., Leicester, UK). Reactions are performed in buffer G (35 mM Tris-HCl (pH 7.5), 24 mM KCl, 4 mM MgCl2, 2 mM DTT, 1.8 mM spermidine, 1 mM ATP, 0.1 mg/mL bovine serum albumin). Relaxed plasmid pBR322 (0.25 μg, Lucent, Ltd., Leicester, UK) is reacted with 1 U E. coli gyrase (Lucent, Ltd., Leicester, UK), in the absence or presence of test compounds, for 30 minutes at 37° C. Reactions are stopped by the addition of SDS and proteinase K to respective final concentrations of 1% and 0.5 mg/mL. After an additional 30 minutes at 37° C., one-tenth volume of 10× loading buffer (0.3% bromophenol blue, 16% Ficoll, 10 mM Na2HPO4) is added, and reactions are loaded onto agarose gels and electrophoresed. The concentration of representative invention compounds of Formula I inhibiting 50% of the supercoiling activity of DNA gyrase is given as an IC50 and recorded in Table 2.

Data set [9] deals with E. faecalis RB1. Kind of data set: Antibacterial assay, microtitration MIC. The data set is classed as cell-based. The note with it: Enterococcus faecalis. The protocol: (§3) The compounds of the present invention are tested against an assortment of Gram negative and Gram positive organisms using standard microtitration techniques (Cohen et al., Antimicrob. Agents Chemother., 1985; 28:766; Heifetz et al., Antimicrob. Agents Chemother., 1974; 6:124). The results of the evaluation of representative 3-aminoquinazolin-2,4-diones of Formula I are shown in Table 2 and compared to two 3-hydroxyquinazolin-2,4-diones.

For data set [10], the system named is S. pyogenes C203. Kind of data set: Antibacterial assay, microtitration MIC. Type of data set: cell-based. The note with it: Streptococcus pyogenes. The procedure:
as §3

In data set [11] the test system is E. coli B90. Kind of data set: Antibacterial assay, microtitration MIC. Type of data set: cell-based. The conditions noted are these: Escherichia coli. The procedure: as §3
Data set [12] deals with E. coli Tol C. Kind of data set: Antibacterial assay, microtitration MIC. The note with it: Escherichia coli, read-out: Minimum Inhibitory Concentrations E. coli Tol C. Type of data set: cell-based. The procedure:
as §3

Data set [13] has as its system E. coli MC4100. Briefly: Antibacterial assay, microtitration MIC. The data set is classed as cell-based. The note with it: Escherichia coli. The procedure:
as §3

The test system of data set [14] is S. aureus 29213. Kind of data set: Antibacterial assay, microtitration MIC. The data set is classed as cell-based. The protocol: as §3
In data set [15] the test system is E. coli. Briefly: In vivo median protective dose, lethal systemic infection. The note with it: mice. The protocol:
as §2

Where [16] appears, read: supercoiling of relaxed pBR322, 30 minutes at 37° C., read-out: E. coli gyrase IC50.
The mark [17] stands for this setting: RB1, read-out: Minimum Inhibitory Concentrations E. faecalis RB1.
[18] abbreviates: C203, read-out: Minimum Inhibitory Concentrations S. pyogenes C203.
The mark [19] stands for this setting: B90, read-out: Minimum Inhibitory Concentrations E. coli B90.
Setting [20] is: MC4100, read-out: Minimum Inhibitory Concentrations E. coli MC4100.
Where [21] appears, read: Staphylococcus aureus, 29213, read-out: Minimum Inhibitory Concentrations S. aureus 29213.
Where [22] appears, read: RB1, Gram positive, read-out: Minimum Inhibitory Concentrations E. faecalis RB1.
The mark [23] stands for this setting: C203, Gram positive, read-out: Minimum Inhibitory Concentrations S. pyogenes C203.
Where [24] appears, read: B90, Gram negative, read-out: Minimum Inhibitory Concentrations E. coli B90.
Setting [25] is: MC4100, Gram negative, read-out: Minimum Inhibitory Concentrations E. coli MC4100.
Setting [26] is: Staphylococcus aureus, 29213, Gram positive, read-out: Minimum Inhibitory Concentrations S. aureus 29213.

On to `N[C@@H]1[C@H]2CN(c3cc4c(cc3F)c(=O)n(O)c(=O)n4C3CC3)C[C@@H]12` [drawing 287, reference compound], for which the MIC in data set [1] was 0.25 µg/mL (≈ 0.752 µM); in [2], 32 µg/mL (≈ 96.3 µM); in data set [3] it was 4 µg/mL (≈ 12 µM); in data set [4], > 64 µg/mL; in data set [5] it was 32 µg/mL (≈ 96.3 µM); in [6], 4 µg/mL (≈ 12 µM).
Consider `NCC1CCN(c2c(F)cc3c(=O)n(N)c(=O)n(C4CC4)c3c2Cl)C1` (stereo not drawn) [Compound 1, 3-Amino-7-(3-aminomethylpyrrolidin-1-yl)-8-chloro-1-cyclopropyl-6-fluoro-1H-quinazoline-2,4-dione hydrochloride], for which, in data set [7], the PD50 is 12 mg/kg. Besides, the MIC stood at 0.13 µg/mL in data set [1]; 1 µg/mL in data set [2]; 0.13 µg/mL in data set [3]; 1 µg/mL in [4]; 1 µg/mL in data set [5]; 0.5 µg/mL in [6]. The MIC in [9] (setting [17]) came to 1 µg/mL; in [10] (setting [18]), 0.13 µg/mL; in data set [11] (setting [19]) it was 1 µg/mL; in data set [12], 0.25 µg/mL; in [13] (setting [20]), 2 µg/mL; in data set [14] (setting [21]), 0.5 µg/mL. Further, the IC50 in data set [8] (setting [16]) worked out at 1 µM.
As for `N[C@@H]1[C@H]2CN(c3cc4c(cc3F)c(=O)n(O)c(=O)n4C3CC3)C[C@@H]12` [drawing 286, reference compound], the PD50 in [7] is given as >100 mg/kg.
For the compound `Cl.Nn1c(=O)c2cc(F)c(N3CCC(CO)C3)c(Cl)c2n(C2CC2)c1=O` (stereo not drawn) [Compound 12, 3-Amino-7-(3-hydroxymethylpyrrolidin-1-yl)-8-chloro-1-cyclopropyl-6-fluoro-1H-quinazoline-2,4-dione hydrochloride], the melting point is 78 to 80 °C. Moreover, in data set [1], the MIC came to 0.06 µg/mL. Also, the MIC in [2] is 1 µg/mL. Further, the MIC in data set [3] turned out to be 1 µg/mL. The MIC in [4] amounted to 2 µg/mL. Also, the MIC in data set [5] was 1 µg/mL. In addition, in data set [6], the MIC came out at 0.25 µg/mL. Moreover, half-maximal inhibition in [8] (IC50) required 2.1 µM. Besides, the MIC in data set [9] (setting [22]) is 4 µg/mL. Moreover, the MIC in data set [10] (setting [23]) came to 8 µg/mL. In addition, the MIC in [11] (setting [24]) worked out at 0.25 µg/mL. In data set [12], the MIC stood at 0.13 µg/mL. Moreover, the MIC in data set [13] (setting [25]) amounted to 16 µg/mL. In addition, the MIC in data set [14] (setting [26]) stood at 2 µg/mL.
In data set [15], `Cl.NC1CCN(c2c(F)cc3c(=O)n(N)c(=O)n(C4CC4)c3c2Cl)C1` (stereo not drawn) [Compound 10, 3-Amino-7-(3-aminopyrrolidin-1-yl)-8-chloro-1-cyclopropyl-6-fluoro-1H-quinazoline-2,4-dione hydrochloride] yielded a PD50 of 72 mg/kg.
Turning to `N[C@H]1CCN(c2cc3c(cc2F)c(=O)n(O)c(=O)n3C2CC2)C1` [reference compound], the MIC is 0.5 µg/mL (≈ 1.56 µM) in data set [1]; > 64 µg/mL in data set [2]; 4 µg/mL (≈ 12.5 µM) in data set [3]; > 64 µg/mL in [4]; > 64 µg/mL in data set [5]; 2 µg/mL (≈ 6.24 µM) in data set [6].
With `Nc1c(F)c(N2CC[C@H](N)C2)c(F)c2c1c(=O)n(N)c(=O)n2C1CC1` [Compound 11, 7-((S)-3-Aminopyrrolidin-1-yl)-1-cyclopropyl-3,5-diamino-6,8-difluoro-1H-quinazoline-2,4-dione hydrochloride], the IC50 in data set [8] (setting [16]) came to 11 µM. Further, the MIC in data set [9] (setting [17]) was determined as 8 µg/mL; in [10] (setting [18]), 4 µg/mL; in [11] (setting [19]) it was 0.5 µg/mL; in data set [12], 0.25 µg/mL; in [13] (setting [20]) it was 2 µg/mL; in [14] (setting [21]), 8 µg/mL.
`Cl.N[C@@H]1CN(c2c(F)cc3c(=O)n(N)c(=O)n(C4CC4)c3c2Cl)CC12CC2` [Compound 14, 3-Amino-7-((S)-7-amino-5-azaspiro[2.4]hept-5-yl)-8-chloro-1-cyclopropyl-6-fluoro-1H-quinazoline-2,4-dione hydrochloride] displayed a melting point of 177 to 179 °C. Moreover, the IC50 in data set [8] came to 2.4 µM. In data set [9] (setting [22]), the MIC came to 8 µg/mL. In data set [10] (setting [23]), the MIC came to 4 µg/mL. The MIC in data set [11] (setting [24]) amounted to 0.25 µg/mL. The MIC in [12] is 0.5 µg/mL. The MIC in [13] (setting [25]) was found to be 4 µg/mL. Further, the MIC in data set [14] (setting [26]) stood at 8 µg/mL.
On to `CC1(CN)CCN(c2c(F)cc3c(=O)n(N)c(=O)n(C4CC4)c3c2Cl)C1` (stereo not drawn) [Compound 3, 3-Amino-7-[3-(aminomethyl)-3-methylpyrrolidin-1-yl]-8-chloro-1-cyclopropyl-6-fluoro-1H-quinazoline-2,4-dione hydrochloride], for which the MIC in data set [1] stood at 0.5 µg/mL; in data set [2], 2 µg/mL; in [3], 1 µg/mL; in data set [4] it was 4 µg/mL; in data set [5], 2 µg/mL; in [6], 1 µg/mL.

The values are drawn from patent US7582627B2, “3-aminoquinazolin-2,4-dione antibacterial agents” (Warner-Lambert Company, priority 2000, dated 2009).
